In article PMC10187937, “Streptothricin F is a bactericidal antibiotic effective against highly drug-resistant gram-negative bacteria that interacts with the 30S subunit of the 70S ribosome” (PLOS Biology, 2023):
Values after ≈ are worked out from the molar mass of the structure shown. Read-outs that look alike come from different tables or passages of the source.

Key:
[1] = test system: T1, Acinetobacter baumannii FDA-CDC 308; assay: microbe, parasite or virus in culture; parameters: broth microdilution minimal inhibitory concentration against multidrug-resistant clinical isolates
T1 construct: FDA-CDC 308
From the text: (§1) Using broth microdilution minimal inhibitory concentration (MIC) testing, we determined the MIC of S-F, S-D, and nourseothricin for a large group of multidrug-resistant CRE. These included strains expressing metallo- and/or serine carbapenemases and the pandrug-resistant, NDM-1–expressing Klebsiella pneumoniae Nevada strain, AR-0663 [18]. For these CRE (n = 39), MIC50 and MIC90 for S-F, S-D, and nourseothricin, respectively, were 2 and 4 (range 1 to 4) μM; 0.25 and 0.5 (range 0.25 to 2) μM; and 0.5 and 1 (range 0.25 to 2) μM. The average MIC was 5.6-fold greater for S-F than for S-D and 4.2-fold greater for S-F than for nourseothricin. […] CRE isolates were from the FDA-CDC Antimicrobial Resistance Isolate Bank (AR-Bank) including the Nevada Strain (AR-0636) and the BIDMC clinical collection sequenced as part of the CRE genomics project. A. baumannii isolates were from the AR-Bank and the Multidrug Resistant Organism Repository and Surveillance Network (MRSN) at the Walter Reed Army Institute of Research (WRAIR). Strains are listed in S3 Table. The single ribosomal operon strain, E. coli SQ110, was from the Coli Genetics Stock Center (Yale University, New Haven, CT) and was originally described by Squire and colleagues.

[2] = test system: T2, Acinetobacter baumannii FDA-CDC 309; assay: microbe, parasite or virus in culture; parameters: broth microdilution minimal inhibitory concentration against multidrug-resistant clinical isolates
T2 construct: FDA-CDC 309
From the text: as §1

[3] = test system: T3, Acinetobacter baumannii FDA-CDC 310; assay: microbe, parasite or virus in culture; parameters: broth microdilution minimal inhibitory concentration against multidrug-resistant clinical isolates
T3 construct: FDA-CDC 310
From the text: as §1

[4] = test system: T4, Acinetobacter baumannii FDA-CDC 311; assay: microbe, parasite or virus in culture; parameters: broth microdilution minimal inhibitory concentration against multidrug-resistant clinical isolates
T4 construct: FDA-CDC 311
From the text: as §1

[5] = test system: T5, Enterobacter aerogenes FDA-CDC 161; assay: microbe, parasite or virus in culture; parameters: broth microdilution minimal inhibitory concentration against multidrug-resistant clinical isolates; conditions: Klebsiella aerogenes, FDACDC161, IMP-4
T5 construct: FDA-CDC 161
From the text: as §1

[6] = test system: T6, Escherichia coli FDA-CDC 118; assay: microbe, parasite or virus in culture; parameters: broth microdilution minimal inhibitory concentration against multidrug-resistant clinical isolates; conditions: FDACDC118, NDM
T6 construct: FDA-CDC 118
From the text: as §1

[7] = test system: T7, Escherichia coli FDA-CDC 119; assay: microbe, parasite or virus in culture; parameters: broth microdilution minimal inhibitory concentration against multidrug-resistant clinical isolates; conditions: FDACDC119, NDM
T7 construct: FDA-CDC 119
From the text: as §1

[8] = test system: T8, Escherichia coli FDA-CDC 128; assay: microbe, parasite or virus in culture; parameters: broth microdilution minimal inhibitory concentration against multidrug-resistant clinical isolates
T8 construct: FDA-CDC 128
From the text: as §1

[9] = test system: T9, Escherichia coli FDA-CDC 137; assay: microbe, parasite or virus in culture; parameters: broth microdilution minimal inhibitory concentration against multidrug-resistant clinical isolates
T9 construct: FDA-CDC 137
From the text: as §1

[10] = test system: T10, Escherichia coli FDA-CDC 149; assay: microbe, parasite or virus in culture; parameters: broth microdilution minimal inhibitory concentration against multidrug-resistant clinical isolates; conditions: FDACDC149, NDM
T10 construct: FDA-CDC 149
From the text: as §1

[11] = test system: T11, Klebsiella pneumoniae CDC 636; assay: microbe, parasite or virus in culture; parameters: broth microdilution minimal inhibitory concentration against multidrug-resistant clinical isolates; conditions: CDC636, NDM
T11 construct: CDC 636
From the text: as §1

[12] = test system: T12, Klebsiella pneumoniae FDA-CDC 34; assay: microbe, parasite or virus in culture; parameters: broth microdilution minimal inhibitory concentration against multidrug-resistant clinical isolates
T12 construct: FDA-CDC 34
From the text: as §1

[13] = test system: T13, Enterobacter cloacae BIDMC 8; parameters: broth microdilution minimal inhibitory concentration against multidrug-resistant clinical isolates; conditions: KPC-3; inhibitor
T13 construct: BIDMC 8
From the text: as §1

[14] = test system: T14, Enterobacter cloacae FDA-CDC 136; parameters: broth microdilution minimal inhibitory concentration against multidrug-resistant clinical isolates; conditions: KPC; inhibitor
T14 construct: FDA-CDC 136
From the text: as §1

[15] = test system: T15, Escherichia coli BIDMC 15; parameters: broth microdilution minimal inhibitory concentration against multidrug-resistant clinical isolates; conditions: KPC-2; inhibitor
T15 construct: BIDMC 15
From the text: as §1

[16] = test system: T16, Escherichia coli BIDMC 17; parameters: broth microdilution minimal inhibitory concentration against multidrug-resistant clinical isolates; conditions: KPC-2; inhibitor
T16 construct: BIDMC 17
From the text: as §1

Escherichia coli BIDMC 3 = test system: T17, Escherichia coli BIDMC 3; parameters: broth microdilution minimal inhibitory concentration against multidrug-resistant clinical isolates; conditions: KPC-2; inhibitor
T17 construct: BIDMC 3
From the text: as §1

Escherichia coli BIDMC 6 = test system: T18, Escherichia coli BIDMC 6; parameters: broth microdilution minimal inhibitory concentration against multidrug-resistant clinical isolates; conditions: KPC-2; inhibitor
T18 construct: BIDMC 6
From the text: as §1

Escherichia coli BIDMC 9 = test system: T19, Escherichia coli BIDMC 9; parameters: broth microdilution minimal inhibitory concentration against multidrug-resistant clinical isolates; conditions: KPC-2; inhibitor
T19 construct: BIDMC 9
From the text: as §1

[17] = test system: T20, Klebsiella oxytoca FDA-CDC 147; parameters: broth microdilution minimal inhibitory concentration against multidrug-resistant clinical isolates; conditions: KPC; inhibitor
T20 construct: FDA-CDC 147
From the text: as §1

[18] = test system: T21, Klebsiella pneumoniae BIDMC 10; parameters: broth microdilution minimal inhibitory concentration against multidrug-resistant clinical isolates; conditions: KPC-3; inhibitor
T21 construct: BIDMC 10
From the text: as §1

[19] = test system: T22, Klebsiella pneumoniae BIDMC 11; parameters: broth microdilution minimal inhibitory concentration against multidrug-resistant clinical isolates; conditions: KPC-4; inhibitor
T22 construct: BIDMC 11
From the text: as §1

[20] = test system: T23, Klebsiella pneumoniae BIDMC 1; parameters: broth microdilution minimal inhibitory concentration against multidrug-resistant clinical isolates; conditions: KPC-3; inhibitor
T23 construct: BIDMC 1
From the text: as §1

[21] = test system: T24, Klebsiella pneumoniae BIDMC 2; parameters: broth microdilution minimal inhibitory concentration against multidrug-resistant clinical isolates; conditions: KPC-3; inhibitor
T24 construct: BIDMC 2
From the text: as §1

[22] = test system: T25, Klebsiella pneumoniae BIDMC 4; parameters: broth microdilution minimal inhibitory concentration against multidrug-resistant clinical isolates; conditions: KPC-3; inhibitor
T25 construct: BIDMC 4
From the text: as §1

[23] = test system: T26, Klebsiella pneumoniae BIDMC 5; parameters: broth microdilution minimal inhibitory concentration against multidrug-resistant clinical isolates; conditions: KPC-3; inhibitor
T26 construct: BIDMC 5
From the text: as §1

[24] = test system: T27, Klebsiella pneumoniae BIDMC 7; parameters: broth microdilution minimal inhibitory concentration against multidrug-resistant clinical isolates; conditions: KPC-3; inhibitor
T27 construct: BIDMC 7
From the text: as §1

[25] = test system: T28, Klebsiella pneumoniae FDA-CDC 117; parameters: broth microdilution minimal inhibitory concentration against multidrug-resistant clinical isolates; conditions: KPC-3; inhibitor
T28 construct: FDA-CDC 117
From the text: as §1

[26] = biological target: T29, rProtein L28 (50S, near the E-site of the A. baumannii 70S ribosome) (Acinetobacter baumannii, UniProt B7I4T0); assay: cryo-EM structure of complex; format: binding; conditions: 0.1 uM ribosome, 100 uM ligand (not seen at 10 uM); second site, 50S near E-site; presumably nonspecific per authors
T29 construct: gene rpmB; native 50S ribosomal protein within purified 70S ribosome; site near the E-site, contact at H20
T29 sequence (B7I4T0 whole entry): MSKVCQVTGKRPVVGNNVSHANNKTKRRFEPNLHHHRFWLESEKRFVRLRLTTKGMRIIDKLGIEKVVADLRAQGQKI

## NCCC[C@H](N)CC(=O)NCCC[C@H](N)CC(=O)NCCC[C@H](N)CC(=O)N[C@@H]1[C@H](O)[C@@H](OC(N)=O)[C@@H](CO)O[C@H]1NC1=N[C@@H]2C(=O)NC[C@@H](O)[C@H]2N1 [S-D, streptothricin D]
[1]; FDACDC308, OXA-71, read-out: S-D MIC
  MIC: 0.25 µM (≈ 0.19 µg/mL)
[2]; FDACDC309, OXA-23, OXA-82, read-out: S-D MIC
  MIC: 2 µM (≈ 1.52 µg/mL)
[3]; FDACDC310, OXA-23, OXA-82, read-out: S-D MIC
  MIC: 2 µM (≈ 1.52 µg/mL)
[4]; FDACDC311, OXA-23, OXA-82, read-out: S-D MIC
  MIC: 2 µM (≈ 1.52 µg/mL)
[5]; read-out: S-D MIC
  MIC: 0.5 µM (≈ 0.379 µg/mL)
[6]; read-out: S-D MIC
  MIC: 1 µM (≈ 0.759 µg/mL)
[7]; read-out: S-D MIC
  MIC: 0.5 µM (≈ 0.379 µg/mL)
[8]; FDACDC128, NDM-1, read-out: S-D MIC
  MIC: 1 µM (≈ 0.759 µg/mL)
[9]; FDACDC137, NDM-6, read-out: S-D MIC
  MIC: 0.5 µM (≈ 0.379 µg/mL)
[10]; read-out: S-D MIC
  MIC: 0.5 µM (≈ 0.379 µg/mL)
[11]; read-out: S-D MIC
  MIC: 0.25 µM (≈ 0.19 µg/mL)
[12]; FDACDC34, IMP-4, read-out: S-D MIC
  MIC: 0.25 µM (≈ 0.19 µg/mL)
[13]
  S-D MIC: 0.25 µM
[14]
  S-D MIC: 0.5 µM
[15]
  S-D MIC: 0.5 µM
[16]
  S-D MIC: 0.5 µM
Escherichia coli BIDMC 3
  S-D MIC: 0.5 µM
Escherichia coli BIDMC 6
  S-D MIC: 0.5 µM
Escherichia coli BIDMC 9
  S-D MIC: 0.5 µM
[17]
  S-D MIC: 0.25 µM
[18]
  S-D MIC: 0.25 µM
[19]
  S-D MIC: 0.25 µM
[20]
  S-D MIC: 0.25 µM
[21]
  S-D MIC: 0.25 µM
[22]
  S-D MIC: 0.25 µM
[23]
  S-D MIC: 0.25 µM
[24]
  S-D MIC: 0.25 µM
[25]
  S-D MIC: 0.25 µM

## NCCC[C@H](N)CC(=O)N[C@@H]1[C@H](O)[C@@H](OC(N)=O)[C@@H](CO)O[C@H]1N=C1N[C@@H]2[C@H](O)CNC(=O)[C@H]2N1 [S-F, streptothricin F]
[26]
  cryo-EM structure of 70S complex: S-F and S-D overlap at this site, interacting with H20 of rProtein L28
[1]; FDACDC308, OXA-71, read-out: S-F MIC
  MIC: 1 µM (≈ 0.503 µg/mL)
[2]; FDACDC309, OXA-23, OXA-82, read-out: S-F MIC
  MIC: 8 µM (≈ 4.02 µg/mL)
[3]; FDACDC310, OXA-23, OXA-82, read-out: S-F MIC
  MIC: 8 µM (≈ 4.02 µg/mL)
[4]; FDACDC311, OXA-23, OXA-82, read-out: S-F MIC
  MIC: 8 µM (≈ 4.02 µg/mL)
[5]; read-out: S-F MIC
  MIC: 2 µM (≈ 1.01 µg/mL)
[6]; read-out: S-F MIC
  MIC: 4 µM (≈ 2.01 µg/mL)
[7]; read-out: S-F MIC
  MIC: 4 µM (≈ 2.01 µg/mL)
[8]; FDACDC128, NDM-1, read-out: S-F MIC
  MIC: 4 µM (≈ 2.01 µg/mL)
[9]; FDACDC137, NDM-6, read-out: S-F MIC
  MIC: 2 µM (≈ 1.01 µg/mL)
[10]; read-out: S-F MIC
  MIC: 4 µM (≈ 2.01 µg/mL)
[11]; read-out: S-F MIC
  MIC: 1 µM (≈ 0.503 µg/mL)
[12]; FDACDC34, IMP-4, read-out: S-F MIC
  MIC: 2 µM (≈ 1.01 µg/mL)
[13]
  S-F MIC: 4 µM
[14]
  S-F MIC: 2 µM
[15]
  S-F MIC: 2 µM
[16]
  S-F MIC: 2 µM
Escherichia coli BIDMC 3
  S-F MIC: 4 µM
Escherichia coli BIDMC 6
  S-F MIC: 2 µM
Escherichia coli BIDMC 9
  S-F MIC: 4 µM
[17]
  S-F MIC: 2 µM
[18]
  S-F MIC: 2 µM
[19]
  S-F MIC: 2 µM
[20]
  S-F MIC: 2 µM
[21]
  S-F MIC: 4 µM
[22]
  S-F MIC: 2 µM
[23]
  S-F MIC: 2 µM
[24]
  S-F MIC: 2 µM
[25]
  S-F MIC: 1 µM
